The record followed here is patent publication US7538120B2, “Method of treating inflammatory diseases” (Array Biopharma Inc., priority 2003, dated 2009).

“Also recorded” adds a separate entry of the source.

A word on the ED50: it is the dose at which the effect has come halfway, by size or by number of responders.

For data set [1], the system named is carrageenan paw edema in rats. As to the kind of experiment: Carrageenan paw edema model in rats. As to conditions: for paw weight: 3, 10 and 30 mg/kg oral, 2 h before carrageenan, 4 h after injection, FIG. 11; for ED50: Rattus norvegicus, oral, single dose, read-out: ED50 (paw weight); for activity compared with indomethacin: vs indomethacin 2 mg/kg (positive control). In kind it is in vivo, rat. How it is done:
The rat carrageenan paw edema model of inflammation was utilized to evaluate the effectiveness of AR-13 and AR-14 in ameliorating swelling and inflammation.
Male Lewis rats (7-9 weeks of age; 10 per group) were acclimated for at least 7 days after arrival.
Acclimated animals were randomized into groups by body weight. Animals were treated orally with AR-13 or AR-14 (3, 10 or 30 mg/kg) or with a positive control (indomethacin, 2 mg/kg). After 2 hours, the animals were anesthetized with Isoflurane and given an intradermal injection of 1.2% carrageenan into the right hind footpad. Four hours after the carrageenan injection, the animals were sacrificed with carbon dioxide inhalation and both paws were removed at the medial malleolus and weighed. The difference in weight between the right (carrageenan) and left (normal) paws was calculated.

The subject of data set [2] is type II collagen-induced arthritis in rats. As to the kind of experiment: Established type II collagen-induced arthritis (CIA) in rats. The format is in vivo. As to the method:
Type II collagen-induced arthritis (CIA) in rats is an experimental model of arthritis that has a number of pathologic, immunologic, and genetic features in common with rheumatoid arthritis.
Female Lewis rats (7-9 weeks of age; 8 per group for arthritis, 4 per group for normal control) were acclimated for 7 days after arrival.
Acclimated animals were anesthetized with Isoflurane. The disease was induced by immunization of the rats with type II collagen (equal mixture of 4 mg/mL bovine type II collagen in 0.01 N acetic acid and Freund's incomplete adjuvant) by injection (day 0). On day 6, the rats were anesthetized again for the second collagen injection. Each animal received 300 μL of the collagen mixture on days 0 and 6, which was spread over 3 sites on the back.
Caliper measurements of normal (pre-disease) right and left ankle joints were taken on day 9 post-collagen injection. On days 10-11, onset of arthritis occurred and rats were randomized into treatment groups. Randomization into each group was done after ankle joint swelling was established in at least one hind paw.
Once enrolled in the treatment groups, treatment with once daily oral dosing of AR-14 (1, 3, 10, 30 or 60 mg/kg) or indomethacin (1 mg/kg) was initiated. Animals receiving vehicle or compound were enrolled and daily dosing was initiated using a volume of 5 mL/kg for oral solutions. ENBREL (etanercept) treatment was on days 11 and 15 (10 mg/kg) by subcutaneous administration. Rats were weighed on days 11-18 and caliper measurements of ankles were taken every day. Final body weights were taken on day 19. On day 19, animals were euthanized, both hind paws and knees were removed, hind paws were weighed and then (with knees) placed in formalin.
Following 1-2 days in fixative and then 4-5 days in decalcifier, the ankle joints and knees were processed, embedded, sectioned and stained with toluidine blue.
A clinical scoring index was used to assess disease progression. Collagen arthritic ankles and knees were given scores of 0-5 for inflammation, pannus formation and bone resorption according to the criteria in Tables 1-7.
Clinical data for ankle joint diameter were analyzed by determining the area under the dosing curve (AUC). For calculation of AUC, the daily measurements of ankle joints (using a caliper) for each rat were entered into Microsoft Excel and the area between the treatment days after the onset of disease to the termination day was computed. Means for each group were determined and percent inhibition from arthritis controls was calculated by comparing values for treated and normal animals. Data were analyzed by the Mann Whitney or Student's t test. Paw weights and histologic parameters (mean±SE) for each group were analyzed for differences using the Mann Whitney or Student's t test. In both cases, significance was set at p≦0.05.
Percent inhibition of paw weight and AUC was calculated using the following formula: % Inhibition=A−(B/A)×100
wherein A=(Mean Disease Control−Mean Normal) and B=(Mean Treated−Mean Normal).

For data set [3], the system named is adjuvant-induced arthritis in rats. As to the kind of experiment: Adjuvant-induced arthritis (AIA) in rats. The format is in vivo. As to the method:
Male Lewis rats (7-9 weeks of age; 8 per group for arthritis, 4 per group for normal control) were acclimated for 7 days after arrival.
Acclimated animals were randomized into groups by body weight and then anesthetized with Isoflurane and given lipoidal amine (LA) in Freund's complete adjuvant (100 μL injection of 7 mg LA, intradermal administration at the base of the tail, Day 0).
Caliper measurements of normal (pre-disease) right and left ankle joints were taken on day 7 post-adjuvant injection. On day 8, dosing began for vehicle and AR-14 treatment groups. Methotrexate treatment (0.075 mg/kg) began on day 0 prior to adjuvant injection.
Once enrolled in the treatment group, treatment with once daily oral doses of AR-14 (1, 3, 10 or 30 mg/kg) was initiated. […] Animals receiving vehicle or compound were enrolled and daily dosing was initiated using a volume of 5 mL/kg for oral solutions on days 8-14. Rats were weighed on days 8-14 and caliper measurements of ankles were taken every day. Final body weights and caliper measurements of ankles and paws were taken on day 15. On day 15, animals were euthanized, both hind paws were removed, and the hind paws weighed and then placed in formalin for histopathologic analyses. Spleens were also removed, weighed and placed in formalin for histopathologic analyses.

Data set [4] relates to indomethacin-induced IBD in rats. The data set can be described thus: Indomethacin-induced inflammatory bowel disease (model of Crohn's disease) in rats. The format is in vivo. As to the method: This study evaluated AR-14 (PO, QD) in a model of Crohn's disease (indomethacin induced intestinal injury) in rats to determine if beneficial effects could be detected in this IBD model.
Rats received two subcutaneous administrations of indomethacin (7.5 mg/kg, in 5% NaHCO3) spaced 24 hours apart. Rats received once daily oral doses of vehicle, AR-14 (1, 3, 10 or 30 mg/kg) or dexamethasone (0.1 mg/kg). Rats were euthanized and evaluated for effects of treatment at day 4 post-initial indomethacin injection. Body weights were taken as well as intestinal weights per 10 cm of area at risk.
A clinical scoring index (Table 8) was used to assess disease progression. Intestines were scored for gross lesions and multiple sections of gut taken for histology (5 sections per rat spaced equally along area at risk).
Five equally spaced sections from area at risk were scored for necrosis and inflammation (0,0) (1,3) etc., according to the criteria in Tables 9 and 10.

Another data set concerns MEK. As to the kind of experiment: MEK inhibition in vivo (stated in summary, no method given).
The mark [5] stands for this setting: 10 and 30 mg/kg vs dexamethasone 0.1 mg/kg.

For the compound `O=C(NOCCO)c1cn2ccnc2c(Cl)c1Nc1ccc(Br)cc1F` [AR-13, 7-(4-bromo-2-fluorophenylamino)-8-chloroimidazo[1,2-a]pyridine-6-carboxylic acid (2-hydroxyethoxy)-amide], in data set [1], the paw weight result is on record as “significantly inhibit”, the ED50 was roughly 10 mg/kg and the “activity compared with indomethacin” value is “superior to the positive control indomethacin”.
Regarding `O=C(NOCCO)c1cn2ccnc2c(Cl)c1Nc1ccc(Br)cc1Cl` [AR-14, 7-(4-bromo-2-chlorophenylamino)-8-chloroimidazo[1,2-a]pyridine-6-carboxylic acid (2-hydroxyethoxy)-amide], in data set [2] (10 mg/kg once daily oral), the “progression of established disease (arthritis)” value is listed as “stopped the progression; also recorded: significantly inhibited”. The “ankle histopathology (joints)” value in data set [2] (10 mg/kg, after 7 days) is given as “Near normal joints with minimal inflammation”. Also, the “established disease, improvement” value in data set [2] (60 mg/kg once daily oral) was “improvement to normal”. Besides, the “pannus formation, cartilage damage and bone resorption (ankle histopathology)” value in data set [2] (1 and 3 mg/kg, after 7 days, FIG. 3) was “significantly inhibited”. Also, the “ankle histopathology compared with indomethacin or ENBREL” value in data set [2] (AR-14 10 mg/kg) is recorded as “significantly better than indomethacin or ENBREL”. For the same compound, the “activity on ankle diameter compared with ENBREL (etanercept)” value in data set [2] (AR-14 10 mg/kg vs ENBREL 10 mg/kg s.c.) is listed as “better than that of ENBREL”. The “activity on ankle diameter compared with indomethacin” value in data set [2] (AR-14 10 mg/kg vs indomethacin 1 mg/kg) is recorded as “equivalent to indomethacin”. Also, the ED50 in data set [2] (Rattus norvegicus, 168 h, after 7 days, once daily oral, read-out: ED50 (inhibition of body weight loss)) is 4.57 mg/kg; in data set [1], roughly 4 mg/kg. Besides, the tolerability entry in data set [2] (all doses administered (1, 3, 10, 30, 60 mg/kg, once daily oral)) is “well tolerated”; in data set [3] (all doses administered (1, 3, 10, 30 mg/kg, once daily oral)), “well tolerated”; in data set [4] (all doses administered), “well tolerated”. In addition, in data set [2] (all doses tested (1-60 mg/kg), over 7 days, FIG. 1), the “ankle swelling (ankle/paw diameter) compared to vehicle control” value is on record as “significantly inhibited”. For the same compound, the body weight loss result was “significantly inhibited” in data set [2] (all doses tested, after 7 days, FIG. 2) and “significantly inhibited” in data set [3] (30 mg/kg, after 15 days, FIG. 5). The joint destruction entry in data set [2] (dose of 1 mg/kg, 1 mg/kg) is given as “significantly inhibited; also recorded: significant inhibition”. Besides, the body weight entry in data set [2] (doses of 30 and 60 mg/kg, after 7 days) was “near normal body weights”. For the same compound, the “acute gross and microscopic inflammation” value in data set [2] (once daily oral 10 mg/kg) and in data set [3] (once daily oral 30 mg/kg) was “reversal” throughout. In addition, the “progression of established disease” value in data set [3] (30 mg/kg) is “stopped the progression of established disease and causes improvement to normal”. In addition, the “joints (paw weight study)” value in data set [3] (30 mg/kg, after 15 days, comparable to methotrexate) is “Near normal joints with minimal inflammation”. Moreover, the “splenomegaly (relative spleen weight)” value in data set [3] (3, 10 and 30 mg/kg, after 15 days, FIG. 7) is “significantly inhibited”. For the same compound, in data set [3] (10 and 30 mg/kg), the “inhibition of splenomegaly compared with methotrexate” value is “comparable to that seen with methotrexate”. For the same compound, the “activity compared with methotrexate” value in data set [3] (AR-14 30 mg/kg vs methotrexate 0.075 mg/kg) is “equivalent to methotrexate”. Also, the “ankle swelling (paw diameter) compared to vehicle control” value in data set [3] (all doses tested, over 15 days, FIG. 4) is recorded as “significantly inhibited”. Moreover, the “paw weight gain (edema/inflammation) compared to vehicle control” value in data set [3] (all doses, after 15 days, FIG. 6) is given as “significantly inhibited”. Further, in data set [4] (30 mg/kg, FIG. 10), the “histopathology of the gut (necrosis and inflammation scored) compared with dexamethasone” value is given as “significantly more efficacious than dexamethasone”. For the same compound, the “small intestine weight gain as a result of edema/inflammation” value in data set [4] (3, 10 and 30 mg/kg, after 4 days, FIG. 9) was “significantly inhibited”. The “inhibition of gross lesion score compared with dexamethasone” value in data set [4] (setting [5]) is “significantly better than dexamethasone”. For the same compound, the “inhibition of intestinal inflammation and edema, small intestine necrosis and inflammation compared with dexamethasone” value in data set [4] (setting [5]) was “significantly better than dexamethasone”. In addition, the “gross lesion score (small intestine)” value in data set [4] (all doses (1, 3, 10, 30 mg/kg), after 4 days, FIG. 8) is listed as “significantly inhibited”. In addition, the “inhibition of disease (gut score and weight and microscopic changes)” value in data set [4] (once daily dosing at 10 mg/kg) is recorded as “significant inhibition”. Also, the paw weight result in data set [1] is “significantly inhibit”. Further, the “activity compared with indomethacin” value in data set [1] is reported as “superior to the positive control indomethacin”. Further, the “selectivity for MEK in vivo” value with MEK was “selective inhibitor of MEK in vivo”.
